Results taken from patent US20250186433A1, “ACSS2 INHIBITORS AND METHODS OF USE THEREOF” (EpiVario, Inc., priority 2017, published 2025).
Entries after “also recorded” stand apart in the source; their conditions may differ.

What was measured:
ACSL5 = target: T1, ACSL5 (Homo sapiens, UniProt Q9ULC5); assay: Acyl-CoA synthetases selectivity panel: ACSL5; format: biochemical; details: human recombinant protein, substrate palmitate, AMP readout by HPLC; read-out: HPLC based activity assays IC50 (UM) ACSL5
T1 construct: purchased Cusabio, China
T1 sequence (Q9ULC5 1-683): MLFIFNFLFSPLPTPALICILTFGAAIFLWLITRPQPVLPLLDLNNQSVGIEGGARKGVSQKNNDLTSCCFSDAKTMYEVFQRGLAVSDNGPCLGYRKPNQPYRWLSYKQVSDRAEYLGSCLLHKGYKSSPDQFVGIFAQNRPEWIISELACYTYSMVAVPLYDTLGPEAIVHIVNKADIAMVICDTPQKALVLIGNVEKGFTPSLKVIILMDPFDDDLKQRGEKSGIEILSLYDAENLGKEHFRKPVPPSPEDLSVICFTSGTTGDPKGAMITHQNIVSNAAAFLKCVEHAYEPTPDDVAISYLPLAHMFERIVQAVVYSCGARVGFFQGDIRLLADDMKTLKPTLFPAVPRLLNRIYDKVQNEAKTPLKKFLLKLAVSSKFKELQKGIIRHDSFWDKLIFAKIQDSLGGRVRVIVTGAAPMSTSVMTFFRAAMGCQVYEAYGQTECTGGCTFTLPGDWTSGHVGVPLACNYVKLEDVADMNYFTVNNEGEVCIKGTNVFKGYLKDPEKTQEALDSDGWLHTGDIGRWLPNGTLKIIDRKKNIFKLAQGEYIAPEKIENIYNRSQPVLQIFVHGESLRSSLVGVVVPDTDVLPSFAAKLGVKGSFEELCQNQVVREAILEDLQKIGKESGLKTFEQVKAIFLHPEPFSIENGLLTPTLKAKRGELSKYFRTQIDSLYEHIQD
Excerpt: (§1) The biochemical assays for testing the selectivity of the compounds according to this invention, were done using human recombinant proteins (Cusabio, China). The readout of the assays was AMP levels, the […] of the reactions, by HPLC method. The acyl substrates (Sigma-Aldrich) of the assays were as followed: ACSS1/ACSS2—Acetate, AACS-Acetoacetyl, ACSF2—Octanoate and ACSL5—Palmitate. The protein in this panel include ACSS1, the closest homolog of ACSS2, in addition to representative short/medium/long chain acyl-CoA syntatases.

HCT116 = assay: In-vivo model that does not utilize acetate (HCT116); details: daily oral dosing
ACSS2 [1] = target: T2, ACSS2 (Homo sapiens, UniProt Q9NR19); assay: cell-based
T2 sequence (Q9NR19 whole entry): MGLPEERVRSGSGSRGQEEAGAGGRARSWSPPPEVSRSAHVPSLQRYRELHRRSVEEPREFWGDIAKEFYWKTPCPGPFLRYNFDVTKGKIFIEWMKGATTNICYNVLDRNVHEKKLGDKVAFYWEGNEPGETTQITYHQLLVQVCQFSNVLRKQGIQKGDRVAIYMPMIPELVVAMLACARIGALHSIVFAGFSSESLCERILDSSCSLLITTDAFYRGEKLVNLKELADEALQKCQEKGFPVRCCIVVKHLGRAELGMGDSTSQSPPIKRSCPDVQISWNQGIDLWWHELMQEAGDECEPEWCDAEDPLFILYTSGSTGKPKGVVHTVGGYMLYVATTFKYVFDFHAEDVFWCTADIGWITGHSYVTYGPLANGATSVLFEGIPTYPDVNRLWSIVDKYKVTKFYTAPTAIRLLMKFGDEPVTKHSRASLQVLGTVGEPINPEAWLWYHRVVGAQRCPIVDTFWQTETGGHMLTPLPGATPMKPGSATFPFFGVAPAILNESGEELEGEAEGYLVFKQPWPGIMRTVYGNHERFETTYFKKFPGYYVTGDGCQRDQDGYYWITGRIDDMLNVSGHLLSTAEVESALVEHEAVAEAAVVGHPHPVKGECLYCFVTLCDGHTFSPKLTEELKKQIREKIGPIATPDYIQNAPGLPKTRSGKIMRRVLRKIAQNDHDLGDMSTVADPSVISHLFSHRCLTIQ
Protocol: Testing the inhibitory effect of compounds on the cellular activity of ACSS2 was done by tracing the incorporation of ^13C from ^13C-acetate into fatty-acids in MDA-MB-468 cells under hypoxic conditions of 1% O2. The assay was done for 5 hours in DMEM with 5.5 mM glucose, 1 mM sodium Pyruvate, 0.65 mM Glutamine, 3.5 ug/ml Biotin, 1% dialyzed serum, 0.5 mM 13 C-acetate and with different concentrations of the inhibitors. At the end of the incubation, the cells were washed with cold PBS, harvested into glass tubes and undergo saponification. The level of ^13C incorporation into Palmitate was done by LC-MS analysis and the level of inhibition was calculated with PRISM software.

AACS = target: T3, AACS (Homo sapiens, UniProt Q86V21); assay: Acyl-CoA synthetases selectivity panel: AACS; format: biochemical; details: human recombinant protein, substrate acetoacetyl, AMP readout by HPLC; read-out: HPLC based activity assays IC50 (UM) AACS
T3 construct: purchased Cusabio, China
T3 sequence (Q86V21 1-672): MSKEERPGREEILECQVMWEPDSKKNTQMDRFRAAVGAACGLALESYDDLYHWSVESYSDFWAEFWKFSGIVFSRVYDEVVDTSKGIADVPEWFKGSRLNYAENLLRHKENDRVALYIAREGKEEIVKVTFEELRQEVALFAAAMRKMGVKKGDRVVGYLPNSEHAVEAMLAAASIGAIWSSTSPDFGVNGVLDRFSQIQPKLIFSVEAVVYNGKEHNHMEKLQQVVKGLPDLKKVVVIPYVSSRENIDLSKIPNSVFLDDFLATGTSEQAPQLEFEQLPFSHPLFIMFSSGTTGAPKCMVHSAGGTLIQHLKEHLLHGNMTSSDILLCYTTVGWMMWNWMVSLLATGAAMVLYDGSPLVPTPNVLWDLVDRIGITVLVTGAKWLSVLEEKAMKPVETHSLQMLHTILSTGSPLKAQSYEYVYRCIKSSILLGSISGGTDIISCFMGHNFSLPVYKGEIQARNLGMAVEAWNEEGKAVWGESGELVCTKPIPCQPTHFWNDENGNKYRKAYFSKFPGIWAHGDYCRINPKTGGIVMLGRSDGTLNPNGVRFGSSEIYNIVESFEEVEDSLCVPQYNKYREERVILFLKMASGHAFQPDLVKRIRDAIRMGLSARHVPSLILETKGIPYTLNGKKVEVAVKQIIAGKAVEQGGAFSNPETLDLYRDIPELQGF
Excerpt: as §1

ACSS2 [2] = target: T2, ACSS2; assay: biochemical
Protocol: The assay is based on a coupling reaction with Pyrophosphatase: ACSS2 is converting ATP+CoA+Acetate=>AMP+pyrophosphate+Acetyl-CoA (Ac-CoA). Pyrophosphatase converts pyrophosphate, a product of the ACSS2 reaction, to phosphate which can be detected by measuring the absorbance at 620 nm after incubation with the Biomol green reagent (Enzo life Science, BML-AK111).
At the end of the reaction, Biomol Green was added for 30 minutes at RT and the activity was measured by reading the absorbance at 620 nm.

[3] = Pharmacokinetic profile in mice (oral and iv); format: in vivo; details: mouse, plasma
ACSF2 = target: T4, ACSF2 (Homo sapiens, UniProt Q96CM8); assay: Acyl-CoA synthetases selectivity panel: ACSF2; format: biochemical; details: human recombinant protein, substrate octanoate, AMP readout by HPLC; read-out: HPLC based activity assays IC50 (UM) ACSF2
T4 construct: purchased Cusabio, China
T4 sequence (Q96CM8 42-615): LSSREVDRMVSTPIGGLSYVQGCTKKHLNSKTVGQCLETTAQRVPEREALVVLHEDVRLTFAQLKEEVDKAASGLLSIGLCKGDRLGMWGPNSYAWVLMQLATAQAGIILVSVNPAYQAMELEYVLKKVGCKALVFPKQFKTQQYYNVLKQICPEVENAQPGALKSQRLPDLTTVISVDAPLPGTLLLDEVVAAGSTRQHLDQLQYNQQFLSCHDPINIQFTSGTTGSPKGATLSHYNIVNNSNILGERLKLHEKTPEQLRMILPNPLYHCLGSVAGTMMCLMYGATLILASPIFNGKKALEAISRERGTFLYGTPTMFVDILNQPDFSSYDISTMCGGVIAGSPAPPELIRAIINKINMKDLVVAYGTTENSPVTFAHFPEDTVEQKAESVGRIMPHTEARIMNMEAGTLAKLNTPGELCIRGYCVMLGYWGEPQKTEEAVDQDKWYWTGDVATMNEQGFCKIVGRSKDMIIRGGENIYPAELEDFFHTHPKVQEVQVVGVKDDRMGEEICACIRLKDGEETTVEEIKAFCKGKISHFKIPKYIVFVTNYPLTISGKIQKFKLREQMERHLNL
Excerpt: as §1

ACSS1 = target: T5, ACSS1 (Homo sapiens, UniProt Q9NUB1); assay: Acyl-CoA synthetases selectivity panel: ACSS1; format: biochemical; details: human recombinant protein, substrate acetate, AMP readout by HPLC; read-out: HPLC based activity assays IC50 (UM) ACSS1
T5 construct: purchased Cusabio, China
T5 sequence (Q9NUB1 38-689): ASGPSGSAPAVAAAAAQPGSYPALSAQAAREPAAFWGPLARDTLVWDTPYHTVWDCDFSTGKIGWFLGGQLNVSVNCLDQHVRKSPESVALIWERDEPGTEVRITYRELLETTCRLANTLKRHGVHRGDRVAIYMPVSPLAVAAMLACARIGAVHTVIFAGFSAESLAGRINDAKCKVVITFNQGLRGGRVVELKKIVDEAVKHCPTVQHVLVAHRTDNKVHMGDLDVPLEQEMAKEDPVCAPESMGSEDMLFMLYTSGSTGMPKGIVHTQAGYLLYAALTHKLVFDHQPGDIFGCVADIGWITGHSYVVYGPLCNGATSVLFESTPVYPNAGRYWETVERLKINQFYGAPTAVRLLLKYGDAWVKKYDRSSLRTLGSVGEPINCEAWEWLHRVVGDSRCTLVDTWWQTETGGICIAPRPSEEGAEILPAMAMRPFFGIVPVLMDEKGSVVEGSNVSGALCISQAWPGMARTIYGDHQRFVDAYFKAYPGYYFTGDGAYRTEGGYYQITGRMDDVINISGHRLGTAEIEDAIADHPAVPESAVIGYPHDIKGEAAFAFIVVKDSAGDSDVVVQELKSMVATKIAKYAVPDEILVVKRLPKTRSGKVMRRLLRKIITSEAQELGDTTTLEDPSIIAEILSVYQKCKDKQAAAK
Excerpt: as §1

[4] = test system: MDA-MB-468 breast cancer cells xenograft; assay: In-vivo efficacy study in MDA-MB-468 breast cancer cells xenograft; details: 100 mg/kg orally once daily; female NMRI nude mice
Protocol: An in-vivo efficacy study was carried out by Charles-River Laboratories at the Freiburg, Germany site.
Tumor fragments from Breast cancer cell line MDA-MB-468 passaged as subcutaneous xenograft were subcutaneously implanted into female NMRI nude mice (Crl:NMRI-Foxnlnu). The animals were randomized into groups (n=10) when tumors volume reached 50 to 250 mm3. […] Body weights and tumor volume [mm3] by caliper were measured twice weekly.

ACSS2 [5] = target: T2, ACSS2; assay: Acyl-CoA synthetases selectivity panel: ACSS2; format: biochemical; design: purchased Cusabio, China; details: human recombinant protein, substrate acetate, AMP readout by HPLC; read-out: HPLC based activity assays IC50 (UM) ACSS2
Excerpt: as §1

Row | SMILES | IC50 (ACSL5) | efficacy in a model that does not utilize acetate (HCT116) (HCT116) | IC50 (ACSS2 [1]) | IC50 (AACS) | IC50 (ACSS2 [2]) | bioavailability ([3]; oral 5 mg/kg, iv 1 mg/kg) | clearance ([3]; oral 5 mg/kg, iv 1 mg/kg) | half-life ([3]; po, single 5 mg/kg dose, read-out: t½ (converted)) | IC50 (ACSF2) | IC50 (ACSS1) | tumor growth in MDA-MB-468 xenograft model [4] | IC50 (ACSS2 [5])
1 | COc1ccc(N2N=C(C)C(C(=O)Nc3cccc(C(C)(F)F)c3)C2=O)cc1 (centres unmarked) [compound 265, N-(3-(1,1-difluoroethyl)phenyl)-1-(4-methoxyphenyl)-3-methyl-5-oxo-4,5-dihydro-1H-pyrazole-4-carboxamide] | > 100 µM | no efficacy | 0.5 to 50 nM | 171 µM | 0.01 to 6 nM | 74% | 0.59 mL/min/kg | 391 min | 152 µM | 1 to 10 µM | significant tumor growth delay; also recorded: inhibits tumor growth | < 1 nM
2 | CC1=NN(c2ccc(OC(F)F)cc2)C(=O)C1C(=O)N[C@H]1CC[C@@H](O)[C@@H](O)C1 (stereo partly drawn) [compound 307, 1-(4-(difluoromethoxy)phenyl)-N-((1S,3S,4R)-3,4-dihydroxycyclohexyl)-3-methyl-5-oxo-4,5-dihydro-1H-pyrazole-4-carboxamide] |  |  | > 100 nM |  | 0.01 to 6 nM |  |  |  |  |  |  | 
